In US12570662B2, “Substituted pyrrolo[1,2-b]pyridazines as bifunctional degraders of interleukin-1 receptor-associated kinases” (Nurix Therapeutics, Inc., priority 2021, dated 2026):

Target: T1, IRAK4 (Homo sapiens, UniProt Q9NWZ3)
T1 construct: C-terminal HiBiT-tagged Jurkat cells (polyclonal cell line or clone 8D5); endogenous in cells; host or cells: Jurkat cells (polyclonal cell line or clone 8D5), HiBiT-tagged
T1 sequence (Q9NWZ3 1-460): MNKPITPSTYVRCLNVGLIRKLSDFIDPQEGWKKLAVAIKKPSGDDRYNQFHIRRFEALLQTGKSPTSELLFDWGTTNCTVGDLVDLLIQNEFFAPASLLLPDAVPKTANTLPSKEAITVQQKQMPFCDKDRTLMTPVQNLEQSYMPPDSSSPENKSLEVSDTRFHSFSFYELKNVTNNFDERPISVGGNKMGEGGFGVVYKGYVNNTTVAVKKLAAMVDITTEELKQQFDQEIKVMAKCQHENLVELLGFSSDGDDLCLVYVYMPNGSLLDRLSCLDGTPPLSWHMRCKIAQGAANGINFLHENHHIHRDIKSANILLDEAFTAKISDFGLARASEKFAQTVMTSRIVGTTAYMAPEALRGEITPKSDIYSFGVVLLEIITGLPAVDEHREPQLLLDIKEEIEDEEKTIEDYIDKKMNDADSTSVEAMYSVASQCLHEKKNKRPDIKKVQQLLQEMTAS
Experiment: IRAK4 Degradation HiBit Assay
Type: cell-based
Conditions: C-terminal HiBiT-tagged Jurkat cells, 4 hrs incubation; for DC50: % IRAK4 remaining, four-parameter fit (IC50 used as DC50); for Dmax: from fit of % IRAK4 remaining, read-out: Dmax
In short: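 Degradation was quantified by luminescence after adding lytic detection reagent containing LgBiT to HiBiT-tagged Jurkat cells (polyclonal or clone 8D5). Cells were treated 4 h at 32 °C across 11 concentrations from 10 μM to 0.1 nM final. Four-parameter curve fitting of % IRAK4 remaining versus DMSO gave DC50 and Dmax.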

SMILES | DC50 [nM] | Dmax [%]
N#Cc1cnn2c(-c3cc(NC4CCOCC4)c(-c4nnc(N5CC6CCC(C5)N6CC5CCN(c6ccc(N7CCC(=O)NC7=O)cc6)CC5)s4)cn3)ccc2c1 [Example 84, 7-(5-{5-[8-({1-[4-(2,4-dioxo-1,3-diazinan-1-yl)phenyl]piperidin-4-yl}methyl)-3,8-diazabicyclo[3.2.1]octan-3-yl]-1,3,4-thiadiazol-2-yl}-4-[(oxan-4-yl)amino]pyridin-2-yl)pyrrolo[1,2-b]pyridazine-3-carbonitrile] | 24 | 77
N#Cc1cnn2c(-c3cc(NC4CCOCC4)c(-c4nnc(N5CC6CCC(C5)N6CC5CCN(c6ccc(N7CCC(=O)NC7=O)cn6)CC5)s4)cn3)ccc2c1 [Example 86, 7-(5-{5-[8-({1-[5-(2,4-dioxo-1,3-diazinan-1-yl)pyridin-2-yl]piperidin-4-yl}methyl)-3,8-diazabicyclo[3.2.1]octan-3-yl]-1,3,4-thiadiazol-2-yl}-4-[(oxan-4-yl)amino]pyridin-2-yl)pyrrolo[1,2-b]pyridazine-3-carbonitrile] | 12 | 111
N#Cc1cnn2c(-c3cc(NC4CC4)c(-c4nnc(N5CC6CCC(C5)N6CC5CCN(c6ccc(N7CCC(=O)NC7=O)cn6)CC5)s4)cn3)ccc2c1 [Example 115, 7-[4-(cyclopropylamino)-5-{5-[8-({1-[5-(2,4-dioxo-1,3-diazinan-1-yl)pyridin-2-yl]piperidin-4-yl}methyl)-3,8-diazabicyclo[3.2.1]octan-3-yl]-1,3,4-thiadiazol-2-yl}pyridin-2-yl]pyrrolo[1,2-b]pyridazine-3-carbonitrile] | 48 | 109
